Entries after “also recorded” stand apart in the source; their conditions may differ.
Columns and labels:
Assay type in all cases: in vivo
[1] = system: carbon tetrachloride-intoxicated mice; experiment: Effect on SGPT and SGOT levels in carbon tetrachloride-intoxicated mice; settings: for SGOT / SGPT: oral, ± SD; for SGOT: control 2087 ± 131; for SGPT: control 3110 ± 50
Description: (§1) Throughout the following experiments, male mice weighing 18-22 g were used, and unless otherwise indicated, the compound of the present invention [6-methoxycarbonyl-6'-hydroxymethyl-2,3,2',3'-bis(methylenedioxy)-4,4'-dimethoxybiphenyl (hereinafter referred to as "Compound 1")]]and DDB of a comparative drug are each suspended in 2% of Tween-80 before administered orally.
Effect on SGPT and SGOT levels in carbon tetrachloride-intoxicated mice (9 mice per group)
(§2) Each group consisted of nine mice. The treated groups of mice were given three doses of Compound 1 twice at an interval of 8 hours on the first day, while one group was given corresponding volume of 2% of Tween-80 as control. At 4 p.m. of the second day, all mice were given i.p. 10 ml/kg of 0.1% of carbon tetrachloride in peanut oil. After a 16 hour fasting, all mice were sacrificed by decapitation. Serum transaminase (SGPT, SGOT) levels were determined.

[2] = system: thioacetamide-intoxicated mice; experiment: Effect on SGPT, SGOT and liver triglyceride levels in thioacetamide-intoxicated mice; settings: for Liver triglyceride / SGOT / SGPT: oral; for Liver triglyceride: control 104 ± 35; for SGOT / SGPT: ± SD; for SGOT: control 1174 ± 435, Compound 1 P < 0.001; for SGPT: control 2365 ± 1045, Compound 1 P < 0.05
Description: as §1, §2
(D) Effect on SGPT, SGOT and liver triglyceride levels in thioacetamide-intoxicated mice (9 mice per group)
Each group consisted of nine mice. The procedure of this experiment was just the same as mentioned in carbon tetrachloride-hepatotoxicity test. Only 50 mg/kg of thioacetamide was instread of carbon tetrachloride.

male kunming strain mice = experiment: Acute toxicity; settings: 3 g/20 ml/kg and 6 g/20 ml/kg, oral
Protocol: Ten male kunming strain mice weighing 18-20 g were used, and starved overnight. Compound 1 was suspened in 0.2% CMC-Na, and 5 mice were given orally compound 1 in a dose of 3 g/20 ml/kg. The other 5 mice were given 6 g/20 ml/kg.

[3] = system: acetaminophen-intoxicated mice; experiment: Effect on SGPT, SGOT and liver triglyceride levels in acetaminophen-intoxicated mice; settings: for Liver triglyceride / SGPT / SGOT: oral; for Liver triglyceride: control 57.4 ± 18.3; for SGPT / SGOT: ± SD; for SGPT: control 1504 ± 330; for SGOT: control 1695 ± 390
Description: as §1
(B) Effect on SGPT, SGOT and liver triglyceride levels in acetaminophen-intoxicated mice
Thirty six mice were divided equally into 4 groups. On the first day, one group was given 2% of Tween-80 as control, while other groups were each given two doses of Compound 1 at an interval of 8 hours. All mice were injected i.p. 110 mg/kg of acetaminophen 16 hours after the last administration of Compound 1. After fasting overnight, all mice were decapited. SGPT, SGOT and liver triglyceride levels were determined.

[4] = system: mortality induced by acetaminophen in mice; experiment: Effect on mortality induced by acetaminophen in mice; settings: 200 mg/kg
Description: as §1
(C) Effect on mortality induced by acetaminophen in mice (14 mice per group)
Each group consisted of 14 mice. The procedure of the treatment was the same as mentioned in the item (B). All mice were given i.p. 400 mg/kg of acetaminophen 24 hours after the second dose of Compound 1. Survival numbers of mice were recorded within 5 days.

drug metabolism enzyme = experiment: Effect on pentobarbital sleeping time in mice; settings: for Sleeping time: 200 mg/kg oral, ± SD, control 49 ± 22
Protocol: (E) Effect on pentobarbital sleeping time in mice (10 mice per group)
Three groups of 10 mice were used in this experiment. […] The mice of control were given physiological saline. The interval between the lose and return of righting reflex of each mouse was recorded as sleeping time.

[5] = 200 mg/kg, DDB P < 0.05, Compound 1 P < 0.001
[6] = 200 mg/kg (DDB 200 mg/mg [sic])
[7] = 200 mg/kg (DDB 200 mg/mg [sic]), Compound 1 P < 0.001
[8] = 200 mg/kg (DDB 200 mg/mg [sic]), DDB P < 0.05, Compound 1 P < 0.001
[9] = 1 hr before pentobarbital 50 mg/kg i.p., P DDB <0.05, Compound 1 <0.001
[10] = 24 hrs before pentobarbital 50 mg/kg i.p., P DDB <0.01, Compound 1 <0.001

## COC(=O)c1cc(OC)c2c(c1-c1c(CO)cc(OC)c3c1OCO3)OCO2 [Compound 1, 6-methoxycarbonyl-6'-hydroxymethyl-2,3,2',3'-bis(methylenedioxy)-4,4'-dimethoxybiphenyl]
[1]; 50 mg/kg, 9 mice per group
  SGOT: 1826 ± 203 u/dl
  SGPT: 2523 ± 273 u/dl
[1]; 100 mg/kg
  SGOT: 1739 ± 192 u/dl
[1]; 100 mg/kg, Compound 1 P < 0.01
  SGPT: 2126 ± 371 u/dl
[1]; 100 mg/kg, result in words
  SGPT level: markedly decreased
[1]; 200 mg/kg, Compound 1 P < 0.01
  SGOT: 1362 ± 148 u/dl
[1]; [5]
  SGPT: 947 ± 236 u/dl
[1]; 200 mg/kg, result in words
  SGOT level vs carbon tetrachloride control: significantly lowered
  SGPT level vs carbon tetrachloride control: significantly lowered
[1]; result in words
  protection against carbon tetrachloride hepatotoxicity: protective effect against hepatotoxicity; also recorded: effective in protection against carbon tetrachloride hepatotoxicity
[2]; 200 mg/kg
  Liver triglyceride: 115 ± 31 mg/kg
  SGOT: 565 ± 130 u/dl
  SGPT: 1430 ± 550 u/dl
[2]; 200 mg/kg, result in words
  lowering SGPT and SGOT levels elevated by thioacetamide: effective in lowering SGPT and SGOT levels
[2]; result in words
  protective effect against hepatotoxicity induced by thioacetamide: protective effect against hepatotoxicity
Male kunming strain mice; within 2 weeks
  death: no death occured
Male kunming strain mice; within 48 hours
  change of the behavior of the mice: No noticeable change of the behavior of the mice
[3]; 100 mg/kg
  Liver triglyceride: 52.0 ± 13.8 mg/kg
[3]; 100 mg/kg, P < 0.05
  SGPT: 935 ± 660 u/dl
  SGOT: 1000 ± 651 u/dl
[3]; [6]
  Liver triglyceride: 50.0 ± 27.6 mg/kg
[3]; [7]
  SGPT: 550 ± 495 u/dl
[3]; [8]
  SGOT: 565 ± 522 u/dl
[3]; 200 mg/kg, 100 mg/kg, result in words
  lowering SGPT and SGOT levels elevated by acetaminophen: effective in lowering SGPT and SGOT levels
[3]; result in words
  liver lesions such as inflammation and necrosis: ameliorated
  liver triglyceride level elevated by acetaminophen: reduced
  protective effect against hepatotoxicity induced by acetaminophen: protective effect against hepatotoxicity
[4]; 400 mg/kg acetaminophen i.p., of 14 mice, within 5 days, control 3
  Number of survival: 11
[4]; 400 mg/kg acetaminophen i.p., within 5 days, control 78
  Mortality: 21%
[4]; result in words
  mortality of mice induced by acetaminophen: significantly decreased
Drug metabolism enzyme; [9]
  Sleeping time: 214 ± 85 min
Drug metabolism enzyme; [10]
  Sleeping time: 20 ± 8 min
Drug metabolism enzyme; 200 mg/kg, one hour before pentobarbital, result in words
  pentobarbital sleeping time: significantly prolonged
Drug metabolism enzyme; 24 hours prior to pentobarbital, result in words
  pentobarbital sleeping time: markedly shortened
Drug metabolism enzyme; indirectly indicated by sleeping time, result in words
  action on drug metabolism enzyme: inductive action on drug metabolism enzyme; also recorded: increases the activity of drug metabolism enzymes

## COC(=O)c1cc(OC)c2c(c1-c1c(C(=O)OC)cc(OC)c3c1OCO3)OCO2 [DDB, dimethyl 4,4'-dimethoxy-5,6,5',6'-dimethylenedioxybiphenyl-2,2'-dicarboxylate, reference compound]
[1]; 50 mg/kg, 9 mice per group
  SGOT: 1922 ± 174 u/dl
  SGPT: 2701 ± 243 u/dl
[1]; 100 mg/kg
  SGOT: 2019 ± 130 u/dl
[1]; 100 mg/kg, Compound 1 P < 0.01
  SGPT: 2965 ± 221 u/dl
[1]; 200 mg/kg, Compound 1 P < 0.01
  SGOT: 1700 ± 185 u/dl
[1]; [5]
  SGPT: 2303 ± 318 u/dl
[2]; 200 mg/kg
  Liver triglyceride: 135 ± 46 mg/kg
  SGOT: 1217 ± 261 u/dl
  SGPT: 2035 ± 770 u/dl
[3]; [6]
  Liver triglyceride: 56.2 ± 27.6 mg/kg
[3]; [7]
  SGPT: 1100 ± 660 u/dl
[3]; [8]
  SGOT: 1130 ± 651 u/dl
Drug metabolism enzyme; [9]
  Sleeping time: 91 ± 57 min
Drug metabolism enzyme; [10]
  Sleeping time: 23 ± 10 min

From US4868207A, “Bis (methylenedioxy) biphenyl compounds useful for the treatment of liver diseases” (priority 1988, dated 1989)
